{"source": "patent US20090068059A1", "about": "“METHOD OF PREVENTING HYDROGEN SULFIDE ODOR GENERATION IN AN AQUEOUS MEDIUM” (priority 2007, published 2009)", "test_system": "sulfate reducing bacteria (SRB)", "assay": "Serum bottle test: control of H2S generation and sulfate reducing bacteria in synthetic nutrient medium", "type": "cell-based", "method": "The test protocol was as follows: 100 mL serum bottles were filled with synthetic nutrient medium, then stoppered, capped, and autoclaved, and allowed to cool to at least 35 ° C. Using a 1 mL syringe with needle, the treatment was added at desired dosages to prepared serum bottles (triplicates of each dosage). No treatment was added for baseline controls. At least 6 baseline serum bottles were used. Using a 1 mL syringe with needle, 0.1 mL of prepared culture was added to each serum bottle. Next, a 10^10 cells/ml concentration of the sulfate reducers was prepared (using autoclaved synthetic nutrient medium) inside an anaerobic chamber. Using a 1 ml syringe with needle, 0.1 ml of the prepared sulfate reducers culture was added to each serum bottle. The bottles were then incubated at the desired temperature. The baseline dissolved sulfide levels were then measured to determine if the samples were ready for efficacy analysis. Using a 30 mL syringe with needle, 30 mL of sample was removed from each serum bottle. About 25 mL of the sample was added to a 30 mL bottle containing 0.125 mL zinc acetate solution, followed by adding 1 mL of 1N NaOH. The sulfide in the fixed sample was then measured. The remaining 5 mL of sample in the syringe was used for pH determination.", "key": {"[1]": {"settings": "H2S generation, inhibitor concentration 1 ppm"}, "[2]": {"settings": "H2S generation, inhibitor concentration 2.5 ppm"}, "[3]": {"settings": "H2S generation, inhibitor concentration 5 ppm"}, "[4]": {"settings": "inhibitor concentration 2.5 ppm"}, "[5]": {"settings": "inhibitor concentration 100 ppm"}}, "note": "Values joined by “and” are separate entries in the source; they are usually repeats but may differ in a detail not shown here. Equal values may be shown once. Where a name gives a salt, the structure may show the parent alone."}
{"smiles": "N=C(NCCCCCCNC(=N)NC(=N)Nc1ccc(Cl)cc1)NC(=N)Nc1ccc(Cl)cc1.O=C(O)[C@H](O)[C@@H](O)[C@H](O)[C@H](O)CO.O=C(O)[C@H](O)[C@@H](O)[C@H](O)[C@H](O)CO", "note": "[Chlorhexidine digluconate]", "values": [{"measurement": "% Inhibition", "setting": "[1]", "result": 100, "unit": "%"}, {"measurement": "% Inhibition", "setting": "[2]", "result": 100, "unit": "%"}, {"measurement": "% Inhibition", "setting": "[3]", "result": 100, "unit": "%"}, {"measurement": "H2S concentration (ppm)", "setting": "inhibitor concentration 1 ppm", "result": 0, "unit": "ppm"}, {"measurement": "H2S concentration (ppm)", "setting": "[4]", "result": 0, "unit": "ppm"}, {"measurement": "H2S concentration (ppm)", "setting": "inhibitor concentration 5 ppm", "result": 0, "unit": "ppm"}, {"measurement": "% H2S Inhibition", "setting": "inhibitor concentration 25 ppm", "result": 99, "unit": "%"}, {"measurement": "% H2S Inhibition", "setting": "inhibitor concentration 50 ppm", "result": 99, "unit": "%"}, {"measurement": "% H2S Inhibition", "setting": "[5]", "result": "99% and 100%"}]}
{"smiles": "[H]/N=C(\\N/C(=N/[H])NCCCCCCNC(=N)NC(=N)Nc1ccc(Cl)cc1)Nc1ccc(Cl)cc1", "note": "[Chlorhexidine dihydrochloride]", "values": [{"measurement": "inhibition at 1 ppm", "setting": "[1]", "result": 96, "unit": "%"}, {"measurement": "% Inhibition", "setting": "H2S generation, inhibitor concentration 1 ppm, dihydrochloride", "result": "98% and 95%"}, {"measurement": "inhibition at 2.5 ppm", "setting": "[2]", "result": 100, "unit": "%"}, {"measurement": "inhibition at 5 ppm", "setting": "[3]", "result": 100, "unit": "%"}, {"measurement": "H2S concentration (ppm)", "setting": "[4]", "result": 0, "unit": "ppm"}, {"measurement": "H2S concentration (ppm)", "setting": "inhibitor concentration 5 ppm", "result": 0, "unit": "ppm"}, {"measurement": "inhibition at 25 ppm", "setting": "inhibitor concentration 25 ppm", "result": 99, "unit": "%"}, {"measurement": "inhibition at 50 ppm", "setting": "inhibitor concentration 50 ppm", "result": 99, "unit": "%"}, {"measurement": "inhibition at 100 ppm", "setting": "[5]", "result": 100, "unit": "%"}]}
